Several values for one entry are separate records, joined by “and”; a condition that tells them apart may be missing. Equal values may be shown once.
Legend:
Anas platyrhynchos = details: short-term; oral; feed; food consumption
Apis mellifera = details: acute, mortality
Bibionidae = details: chronic/long-term; duration: 23 days; reproduction
Daphnia magna = details: chronic/long-term; duration: 21 days; reproduction
Folsomia candida = details: chronic/long-term
Oncorhynchus mykiss = details: chronic/long-term; duration: 65 days; mortality
Rattus norvegicus = details: for NOAEL: chronic
Typhlodromus pyri = test: LR50; higher = less toxic; details: not reported; reproduction

For `c1ccc2[nH]c(-c3cscn3)nc2c1` [Thiabendazole], the LC50 (Anas platyrhynchos) was over 1290 mg/kg, the LD50 (Apis mellifera; dermal) was over 34 µg/piece and the LD50 (Apis mellifera; oral, unspecified) was over 200 µg/piece. For the same compound, the NOEC (Bibionidae) was 2 mg/L and 3 mg/kg, the LD50 (Colinus virginianus; acute, oral) was over 2250 mg/kg and the NOAEL (Colinus virginianus; reproduction developmental) was 34.9 mg/kg-day. It also gave an NOEC (Daphnia magna) of 0.041 mg/L, an NOEC (Folsomia candida) of 25 mg/kg and an NOEC (Oncorhynchus mykiss) of 0.012 mg/L. It also gave an LD50 (Rattus norvegicus; acute) of 3100 mg/kg, an NOAEL (Rattus norvegicus) of 10 mg/kg-day and an NOAEL (Rattus norvegicus; duration: 2 years, histopathology: neoplastic) of 10 mg/kg-day. For the same compound, the NOEL (Rattus norvegicus; reproduction developmental, reproduction) was 10 mg/kg-day, the LC50 (Tagia sp.; acute, duration: 14 days, mortality) was over 224 mg/kg and the NOEC (Tagia sp.; chronic/long-term, duration: 8 weeks) was 2.1 mg/kg. It also gave an LR50 (Typhlodromus pyri) of over 1800 g/ha.

— EPA's ToxValDB 9.5 (doi:10.2903/j.efsa.2014.3880)
